Data from publication PMC10587737, “Dracorhodin targeting CMPK2 attenuates inflammation: A novel approach to sepsis therapy” (Clinical and Translational Medicine, 2023).

Experiments:
CMPK2 [1] = biological target: T1, CMPK2 (Homo sapiens, UniProt Q5EBM0); experiment: CMPK2 kinase activity assay (ADP-GLO); assay type: biochemical; conditions: ligand concentration 10 μM, luminescence; for inhibition at 10 µM: read-out: CMPK2 inhibition
T1 sequence (Q5EBM0 22-449): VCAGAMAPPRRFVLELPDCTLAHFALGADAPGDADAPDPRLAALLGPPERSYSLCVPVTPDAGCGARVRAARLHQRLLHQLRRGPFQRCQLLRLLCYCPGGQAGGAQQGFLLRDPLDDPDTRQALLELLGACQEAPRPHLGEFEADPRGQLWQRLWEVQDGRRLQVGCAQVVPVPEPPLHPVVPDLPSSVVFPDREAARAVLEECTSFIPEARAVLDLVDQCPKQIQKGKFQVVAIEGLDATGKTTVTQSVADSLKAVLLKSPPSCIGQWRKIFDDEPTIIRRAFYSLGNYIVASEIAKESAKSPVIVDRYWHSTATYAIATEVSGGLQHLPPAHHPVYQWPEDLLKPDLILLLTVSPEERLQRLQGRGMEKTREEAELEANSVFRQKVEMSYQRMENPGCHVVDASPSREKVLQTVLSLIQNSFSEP
Description: The range of concentrations used to investigate the effect of small‐molecule ligands on CMPK2 activity was 0.1–150 μM. Each data point contains three biological replicates.
CMPK2 activity was measured by the ADP‐GLO kinase assay according to the guidelines specified in the manufacturer's instructions. In the activity assay, the amount of ADP formed in the CMPK2 reaction was equal to the ATP consumption and proportional to the increase in luminescence generated in the luciferase reaction, which is the experimental principle shown in Figure 1I.

CMPK2 [2] = biological target: T1, CMPK2; experiment: Ultrafiltration-affinity mass spectrometry screening (FC, CMPK2 vs BSA); assay type: binding; design: the N‐terminus was truncated by 22 amino acids; 6xHis (C); made in house; host or cells: FreeStyle 293-F cells (pTT5 vector); conditions: ratio of MS response CMPK2 vs BSA; for FC Negative: negative ion mode; for FC Positive: positive ion mode
Description: The purified kinase CMPK2 was incubated with the six cocktails for 30 min at 37°C in a suitable buffer solution. In the compound cocktail, each compound concentration was 1 μM, and the concentration of the kinase CMPK2 was set at 5 μM. Each of the above incubation solutions was added to a 0.5 mL 10 kDa ultrafiltration tube (Amicon μltra‐0.5 10K Centrifugal Filter Devices, Millipore), and four experimental replicates were conducted for each CMPK2 and BSA pair. The 10 kDa ultrafiltration tube was centrifuged with the incubation solution at 13 000 × g for 20 min at 4°C. Centrifugation was stopped when the solution volume was approximately 100 μL, and then the mixture was washed five times with cold ammonium acetate (150 mM, pH 7.5). For affinity selection, 100 μL of the mixture was transferred after centrifugation and rinsed into a new eppendorf tube. […] The protein precipitate was discarded and the liquid was concentrated with a N2 stream. The residue was re‐dissolved in 50% methanol before injection. BSA samples were processed in a manner parallel to that of CMPK2 samples.
Sample measurement was detected by using an UHPLC instrument (Shimadzu) combined with a Triple TOF 5600^+ MS (SCIEX). Chromatographic separation was conducted with an Acquity UPLC BEH C18 column (1.7 μm, 2.1 × 100 mm, Waters) at a temperature maintained at 40°C and a flow rate of 0.3 mL/min, with mobile phases of water–0.1% formic acid (A) and acetonitrile (B). The linear gradient elution profile was as follows: 0−2 min, 5% B; 2−12 min, 5−30% B; 12−25 min, 30−90% B; 25−30 min, 90% B; and re‐equilibration for 5 min. Subsequently, the gradient was recovered to the initial conditions at the final 1 min. Whether it was a test sample or a quality control (QC) sample, each injection volume was 5 μL.
Briefly, the chromatographic peaks of each bound ligand were extracted using PeakView with identification criteria of precise mass measurement deviation and retention time tolerance of 5 ppm and 0.1 min, respectively. The MS response of each ligand was represented with the integrated peak area extracted by the corresponding extract ion chromatogram. The effective hits were selected on the basis of fold change (FC) value ≥ 2, p value < .05 and cyclic voltammetry (CV) ≤ 30% and were identified as candidate ligands of CMPK2. By extracting the m/z of individual standards from the acquired MS/MS spectrum, the decimal point of RT was used to distinguish the ambiguous compound peaks in the cocktails.
The experimental samples were injected into a UHPLC‐Q‐TOF‐MS system. First, total ion chromatograms (TIC) reflected the general overview of all samples (Supporting Information Figure S2A). […] Among the groups, each sample with a CV more than 30% was considered an abnormal sample and was not considered in the subsequent statistical analysis. In addition, the p value of each sample between the groups was calculated by MetaboAnalyst 5.0, and the significance of differences was determined. In the ultrafiltration‐affinity mass spectrometry profiling, we calculated FC, which is defined as the ratio of the MS response between the compound detected in the CMPK2 and BSA incubation system (Supporting Information Figure S2C,D). […] To select small‐molecule ligands with strong affinity, we determined the screening criteria to be FC ≥ 2. Affinity MS analysis generated a set of raw data, and the compounds that met the pre‐judgment criteria (FC ≥ 2, p < .05) were selected as compound hits (Supporting Information Figure S2).

With `O=c1c(O[C@@H]2O[C@H](CO)[C@H](O)[C@H](O)[C@H]2O)c(-c2ccc(O)c(O)c2)oc2cc(O)cc(O)c12` [compound 400, Hyperoside] the inhibition at 10 µM (CMPK2 [1]) was > 50%, the “FC Negative” value (CMPK2 [2]) was 6.41 and the “FC Positive” value (CMPK2 [2]) was 4.74.
With `CC(C)=CCCC(C)(O)[C@H]1CC[C@]2(C)[C@@H]1[C@H](O)C[C@@H]1[C@@]3(C)CC[C@H](O)C(C)(C)[C@@H]3CC[C@]12C` (stereo in doubt) [compound 368, Protopanaxadiol] the CMPK2 inhibition (CMPK2 [1]) was “more than 50%” and the “FC Negative” value (CMPK2 [2]) was 3.70.
`O=c1ccn([C@H]2C[C@H](O)[C@@H](COP(=O)(O)O)O2)c(=O)[nH]1` [dUMP, reference compound] was tested, and the “FC Positive” value (CMPK2 [2]) was 1.17 and the FC value (CMPK2 [2]; Figure S3A) was 1.9.
`COc1ccc2ccc(=O)oc2c1` [compound 792, 7-methoxy coumarin] was tested, and the inhibition at 10 µM (CMPK2 [1]) was > 50% and the “FC Positive” value (CMPK2 [2]) was 3.13.
